Results as given in PubChem BioAssay AID844 (SRMLSC, 2007).
The source made the active and inactive calls. The rule behind the calls is not given here.

System: MRP1 cells, doxorubicin viability shift, 10 uM compound
Experiment: doxorubicin EC50 increase in MRP-1 cells, dose response, cell-based, doxorubicin EC50 shift (AID 844)
Conditions: for EC50: measured here: doxorubicin EC50 with compound

SMILES | fold increase in Dox EC50 | EC50 [µM]
O=C(c1ccccc1)C(Sc1ncn[nH]1)c1ccccc1 (configuration not stated) | 0.68 (inactive) | 3.7
Cn1c(=O)c2c(nc(CN3CCOCC3)n2CCc2ccccc2)n(C)c1=O | 0.31 (inactive) | 1.68
Cc1nc2cc(-c3ccsc3-n3c(C)ccc3C)[nH]n2c(=O)c1Cl | 0.74 (inactive) | 4
O=C1c2cccc(OCc3ccc(F)cc3)c2CCN1Cc1ccc(F)cc1 | 1.08 (inactive) | 5.82
COc1ccc(CN=C2NC(=O)CC(C(=O)Nc3ccc(F)cc3)S2)cc1 (configuration not stated) | 1.01 (inactive) | 5.47
Cc1cc(C(=O)N/N=C/c2cc([N+](=O)[O-])cc(C)c2O)n[nH]1 | 0.53 (inactive) | 2.87
CCCCc1ccc(NC(=O)c2c(C)noc2C)cc1 | 1.23 (inactive) | 6.63
CCCCN(C(=O)Cc1cccs1)c1nnc(-c2cccnc2)s1 | 0.86 (inactive) | 4.65
Cc1c(C(=O)Nc2nnc(C(F)(F)F)s2)oc2ccccc12 | 2.05 | 11
O=C(NC(=S)Nc1ccccc1N1CCOCC1)c1ccc(-c2cc(Cl)ccc2Cl)o1 | 1 (inactive) | 5.42
Oc1c(C=C2N=c3ccccc3=N2)sc(=S)n1-c1ccc(F)cc1 | 0.63 (inactive) | 3.39
CC(C)Cn1c2c(c(O)c(C(=O)Nc3nccs3)c1=O)CCCC2 | 0.83 (inactive) | 4.48
CCC1(C)Cc2c(sc3nnn(Cc4ccccc4Cl)c(=O)c23)CO1 (configuration not stated) | 0.81 (inactive) | 4.35
Cc1c(C(=O)OC(C)C)sc(N)c1C(=O)OC(C)C | 0.94 (inactive) | 5.08
Cc1nnc(NC(=O)C(C)Sc2nncn2C)s1 (configuration not stated) | 0.77 (inactive) | 4.15
CCc1c(C)sc(NC(=O)c2cc(CC(C)C)on2)c1C#N | 0.64 (inactive) | 3.45

SMILES | fold increase in Dox EC50 | EC50 [µM]
CCOC(=O)C1=C(C)Nc2sc(C(=O)c3ccc(OC)cc3)c(N)c2C1c1ccc(C(=O)OC)cc1 (configuration not stated) | 0.2 (inactive) | 1.09
CCCCCCC(=O)Nc1ccc(C(=O)N/N=C/c2cccnc2)cc1 | 0.13 (inactive) | 0.694
O=C1C=C(O)CC(c2ccc(Cl)cc2)C1 (configuration not stated) | 1.04 (inactive) | 5.6
CC(=O)OCC(=O)[C@@]1(O)[C@H](C)C[C@H]2[C@@H]3CCC4=CC(=O)C=C[C@]4(C)[C@@]3(F)[C@@H](O)C[C@@]21C | 1 (inactive) | 5.42
Cc1ccc(COc2cccc3c2CCN(Cc2ccc(F)cc2)C3=O)cc1 | 1.02 (inactive) | 5.52
CCOC(=O)c1cnn(-c2ccccn2)c1N | 0.92 (inactive) | 4.94
CCOC(=O)Cc1csc(NC(=S)NC(=O)C(C)(C)C)n1 | 1.2 (inactive) | 6.45
CCCN1C(=O)/C(=N\OCC(=O)Nc2ccc(C(C)C)cc2)c2ccccc21 | 0.74 (inactive) | 3.99
CCSC(C)CC1C/C(=N/O)c2c(CC)noc2C1 (configuration not stated) | 1.27 (inactive) | 6.85
CCOC(=S)NC(=O)c1sc2ccccc2c1Cl | 1.32 (inactive) | 7.13
Cc1ccc(C(=O)NC(C)c2ccc(F)cc2)cc1 (configuration not stated) | 0.68 (inactive) | 3.68
CC(=O)c1ccc(N2CCN(c3ccc(C(F)(F)F)cn3)CC2)cc1 | 0.56 (inactive) | 3
Fc1ccc(-n2nnnc2-c2cnc(-c3cccs3)nc2C(F)(F)F)cc1 | 0.6 (inactive) | 3.24
Cc1cc(C(=O)Nc2nnc(C(F)(F)F)s2)no1 | 1.51 | 8.14
COc1ccc(OC)c(-c2cc(C(=O)Nc3c(C)nn(Cc4ccccc4C)c3C)no2)c1 | 0.65 (inactive) | 3.49
